The values that follow come from US4918173A, “2',6'-Dideoxy derivatives of anthracycline glycosides” (Laboratories Hoechst S.A., priority 1985, dated 1990).

For one data set, the system named is L 1210 leukemia cells. The data set is described as follows: Effect on L 1210 leukemia cells: colony formation in agarose, method of Hamburger and Salmon modified. The data set is classed as cell-based. Particulars: Mus musculus. As for the experimental part: The cells are incubated for 1 hour at 37° C. in the presence of various concentrations of the tested substance. The cells are then washed twice with Mc Coy 5 A and placed on agarose plates according to the method of Hamburger and Salmon. Furthermore, the test is carried out in parallel with continuous incubation with various concentrations of the substance under study by introducing the substance into the agarose layer before the cells are left to incubate. The dishes are placed in the oven at 37° C. under an atmosphere of 5% CO2 and 20% O2, and a relative humidity of 95% for 5 to 7 days. After this time the colonies with a diameter greater than 60 mcm are counted with the aid of a reversed microscope. […] Two experiments are carried out, one with 1 hour's exposure, the other with continuous exposure.

For data set [1] the following is noted: versus the parent compounds; F. Arcamone et al. 1976; cited from earlier work.
[2] abbreviates: L1210, L 1210 leukemia cells, 1 h exposure at 37° C., read-out: IC 50, 1 h exposure.
[3] abbreviates: L1210, L 1210 leukemia cells, continuous exposure (substance in agarose layer), 5 to 7 days, read-out: IC 50, Continuous exposure.

Molecules are shown by their SMILES. Values after ≈ are worked out from the molar mass of the structure shown. Like-named read-outs stand apart in the source and are kept apart here. Where only a bound is given, the exact number is not on record here.

On to `C[C@@H]1O[C@@H](O[C@H]2C[C@]3(COC(C)(C)O3)Cc3c(O)c4c(c(O)c32)C(=O)c2ccccc2C4=O)C[C@H](O)[C@H]1O`, for which the IC50 in the data set with L 1210 leukemia cells (setting [2]) and with L 1210 leukemia cells (setting [3]) was more than 1 µg/mL throughout.
For the molecule `COc1cccc2c1C(=O)c1c(O)c3c(c(O)c1C2=O)C[C@@](O)(C(=O)CO)C[C@@H]3O[C@H]1C[C@H](N)[C@H](O)[C@H](C)O1` [DOXORUBICIN, reference compound], the IC50 amounted to 0.02 µg/mL (≈ 0.0368 µM) with L 1210 leukemia cells (L1210, 1 h, read-out: IC 50, 1 h exposure) and 0.04 µg/mL (≈ 0.0736 µM) in the data set on L 1210 leukemia cells (L1210, read-out: IC 50, Continuous exposure).
Take `CC(=O)O[C@H]1[C@H](C)O[C@@H](O[C@H]2C[C@](O)(CO)Cc3c(O)c4c(c(O)c32)C(=O)c2ccccc2C4=O)C[C@@H]1OC(C)=O` [XXIV, 1-O-(3',4'-Di-O-acetyl-2',6'-dideoxy-α-L-arabinohexopyranosyl)-1,2,3,4,6,11-hexahydro-1S,3S,5,12-tetrahydroxy-3-hydroxymethylnaphthacene-6,11-dione]: the IC50 in the data set on L 1210 leukemia cells (setting [2]) is 0.021 µg/mL (≈ 0.0368 µM); in the data set on L 1210 leukemia cells (setting [3]), 3.6 µg/mL (≈ 6.31 µM).
Turning to `CC(=O)[C@]1(O)Cc2c(O)c3c(c(O)c2[C@@H](O[C@H]2C[C@H](N)[C@H](O)[C@H](C)O2)C1)C(=O)c1ccccc1C3=O` [4-demethoxydaunorubicin], in data set [1], the “activity relative to the parent compounds” value is reported as “more active” and the “toxicity relative to the parent compounds” value is listed as “less toxic”.
With `CC(=O)O[C@H]1[C@H](C)O[C@@H](O[C@H]2C[C@]3(COC(C)(C)O3)Cc3c(O)c4c(c(O)c32)C(=O)c2ccccc2C4=O)C[C@@H]1OC(C)=O` [XXIII, 1-O-(3',4'-Di-O-acetyl-2',6'-dideoxy-α-L-arabinohexopyranosyl)-1,2,3,4,6,11-hexahydro-1S,3S,5,12-tetrahydroxy-3-hydroxymethyl-3,13-O-isopropylidenenaphthacene-6,11-dione], the IC50 is 2.8 µg/mL (≈ 4.59 µM) in the data set on L 1210 leukemia cells (setting [2]) and more than 10 µg/mL in the data set on L 1210 leukemia cells (setting [3]).
As to `COc1cccc2c1C(=O)c1c(O)c3c(c(O)c1C2=O)C[C@@](O)(C(=O)CO)C[C@@H]3O[C@H]1C[C@H](N)[C@H](O)[C@H](C)O1` [adriamycin], in data set [1], the “activity relative to the parent compounds” value is “more active” and the “toxicity relative to the parent compounds” value is listed as “less toxic”.
For `C[C@@H]1O[C@@H](O[C@H]2C[C@](O)(CO)Cc3c(O)c4c(c(O)c32)C(=O)c2ccccc2C4=O)C[C@H](O)[C@H]1O` [XXV, 1-O-(2',6'-dideoxy-α-L-arabinohexopyranosyl)-1,2,3,4,6,11-hexahydro-1S,3S,5,12-tetrahydroxy-3-hydroxymethylnaphthacene-6,11-dione], the IC50 in the data set with L 1210 leukemia cells (setting [2]) came to 0.025 µg/mL (≈ 0.0514 µM); in the data set with L 1210 leukemia cells (setting [3]) it was 0.063 µg/mL (≈ 0.13 µM).
